Consider 13 compounds from US5428042A, “1-(2H-1-oxo-3,4-dihydronaphtyl-6-yl)-acetyl-piperidines as kappa agonists” (Dr Lo Zambeletti S.p.A., priority 1990, dated 1995).

Assay [1] is described as follows: P-phenylquinone-induced abdominal writhing test in mice (analgesia, mouse writhing, graded). The format is in vivo, mouse (male Charles River, Swiss Strain). The settings on record: sc, 20 min, 20 min pretreatment, p-phenylquinone 2 mg/Kg i.p., 8 min observation. The source says: The pharmacological activity of the compounds of this invention is illustrated by the mouse writhing test, described as follows:
P-phenylquinone-induced abdominal writhing test in mice
The methodology employed is based on that described by Sigmund et al, Proc. Soc. Exptl. Biol. 95, 729/1957, modified by Milne and Twomey, Agents and Actions, 10, 31/1980.
Male Charles River mice (Swiss Strain), 25-36 g body weight, were used. Animals were allowed food and water ad libitum and were randomized into groups of 10 prior to experimentation. Test compounds were dissolved in either distilled water or distilled water plus 0.1M AMS, and administered by the subcutaneous route in a final volume of 10 ml/Kg. Control animals received 10 ml/Kg of the appropriate vehicle alone. Following a pretreatment period of 20 min., mice were injected intraperitoneally with p-phenylquinone, 2 mg/Kg at 37° C. in a final volume of 10 mg/kg. […] During this period the number of abdominal writhing responses per animal were recorded where writhing consists of an intermittent contraction of the abdomen associated with hind leg extension.
The degree of antinociceptive protection afforded by the test compound was determined as the mean number of writhing responses observed in the treated group (T) expressed as a percentage of the mean number of writhing responses in the control group (C) according to the following formula:
[1-(T/C]×100%=% graded protection

Another assay has as its target T1, kappa brain receptor (Cavia porcellus, UniProt P41144).
T1 construct: fresh guinea pig brain homogenates; from tissue; host or cells: guinea pig whole brain without cerebellum, fresh homogenate
The assay is described as follows: Kappa brain receptor binding (binding to kappa sites). Conditions: guinea pig brain homogenate, tritiated kappa selective compound, 40 min, 25° C. How it is done:
Radio receptor binding to kappa site is performed on fresh guinea pig brain homogenates prepared according to Kosterlitz (1981).
Whole brain without cerebellum is homogenized in 50 mM Tris-buffer (pH 7.4 at 0° C.) and centrifuged at 49,000×g for 10 min.
The pellet is then resuspended in the same buffer, incubated at 37° C. for 45 min and centrifuged again.
1.9 ml of the final homogenate (1:100 in Tris pH 7.4, 0° C.) is used for the binding assay.
The binding to the kappa sites is performed using a tritiated kappa selective compound. Final homogenate with solutions of the cold ligand and of the labelled ligand is incubated for 40 min at 25° C., filtered through Whatman GF/C glass filter discs and washed. The radioactivity bound to the filters is counted by liquid scintillation spectrophotometry.
The non-specific binding is determined in the presence of 500 nM of the benzomorphan non-selective compound Mr 2266.
The equilibrium dissociation constant […] and the maximum binding capacity (Bmax) are determined from the analysis of saturation curves, while the inhibition constant (Ki) is determined from the analysis of competition experiments (Hill 1910; Scatchard 1949; Cheng and Prusoff 1973; Gillan et al 1980).

The structures appear in SMILES notation. Where a name gives a salt, the structure may show the parent alone.

As usually defined, the ED50 is the dose at which the effect has come halfway, by size or by number of responders. In general, Ki refers to a measure of affinity in units of concentration, obtained from inhibition or displacement. Read a high Ki as weaker binding.

T1 sequence (P41144 whole entry): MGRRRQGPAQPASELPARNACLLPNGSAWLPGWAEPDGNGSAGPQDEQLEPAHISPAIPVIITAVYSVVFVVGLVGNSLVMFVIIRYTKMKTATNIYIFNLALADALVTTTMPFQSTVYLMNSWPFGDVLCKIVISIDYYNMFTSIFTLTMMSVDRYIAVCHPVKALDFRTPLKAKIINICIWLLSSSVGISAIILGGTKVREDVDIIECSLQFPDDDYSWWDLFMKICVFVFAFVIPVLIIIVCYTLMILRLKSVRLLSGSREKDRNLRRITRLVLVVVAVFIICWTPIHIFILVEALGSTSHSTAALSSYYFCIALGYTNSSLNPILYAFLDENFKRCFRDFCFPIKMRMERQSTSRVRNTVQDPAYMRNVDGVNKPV

As to `CN(C)CC1CC(C)(C)CCN1C(=O)Cc1ccc2c(c1)CCCC2=O` (racemic) [Example 5, (±)-1-[1-oxo-3,4-dihydro-(2H)-napht-6-yl]acetyl-2-dimethylaminomethyl-4,4-dimethyl piperidine hydrochloride], in assay [1], the ED50 is 0.377 mg/kg. Further, affinity on kappa brain receptor was put at a Ki of 65 nM.

For `CN(C)CC1CCC(C)(C)CN1C(=O)Cc1ccc2c(c1)CCCC2=O` (racemic) [Example 6, (±)-1-[1-oxo-3,4-dihydro-(2H)-napht-6-yl]acetyl-2-dimethylaminomethyl-5,5-dimethyl piperidine hydrochloride], in assay [1], the ED50 was found to be 0.641 mg/kg. Also, at kappa brain receptor, the Ki is 88.7 nM.

Turning to `CN(C)C[C@@H]1CCCCN1C(=O)Cc1ccc2c(c1)CCCC2=O` [Example 1, (2S)-1-[1-oxo-3,4-dihydro-(2H)-napht-6-yl]acetyl-2-dimethyl-aminomethyl piperidine hydrochloride], the ED50 in assay [1] was found to be 0.154 mg/kg.

On to `CCN(C)C[C@@H]1CCCCN1C(=O)Cc1ccc2c(c1)CCCC2=O` [Example 2, (2S)-1-[1-oxo-3,4-dihydro-(2H)-napht-6-yl]acetyl-2-(N-methyl-N-ethyl)aminomethyl piperidine hydrochloride], for which, in assay [1], the ED50 was determined as 0.061 mg/kg.

On to `CCN(CC)C[C@@H]1CCCCN1C(=O)Cc1ccc2c(c1)CCCC2=O` [Example 3, (2S)-1-[1-oxo-3,4-dihydro-(2H)-napht-6-yl]acetyl-2-diethylaminomethyl piperidine hydrochloride], for which the median effective dose (ED50) in assay [1] turned out to be 0.427 mg/kg.

Regarding `CCCN(C)C[C@@H]1CCCCN1C(=O)Cc1ccc2c(c1)CCCC2=O` [Example 9, (2S)-1-[1-oxo-3,4-dihydro-(2H)-napht-6-yl]acetyl-2-(N-methyl-N-propyl)aminomethyl piperidine hydrochloride], the ED50 in assay [1] was 0.221 mg/kg. Besides, the inhibitory constant (Ki) at kappa brain receptor fell in the range of 10 to 50 nM.

For `CC(C)N(C)C[C@@H]1CCCCN1C(=O)Cc1ccc2c(c1)CCCC2=O` [Example 10, (2S)-1-[1-oxo-3,4-dihydro-(2H)-napht-6-yl]acetyl-2-(N-methyl-N-isopropyl)aminomethyl piperidine hydrochloride emihydrate], the ED50 in assay [1] was found to be 0.078 mg/kg. At kappa brain receptor, this compound displayed a Ki of 2.87 nM.

With `C=CCN(C)C[C@@H]1CCCCN1C(=O)Cc1ccc2c(c1)CCCC2=O` [Example 11, (2S)-1-[1-oxo-3,4-dihydro-(2H)-napht-6-yl]acetyl-2-(N-allyl-N-methyl)aminomethyl piperidine hydrochloride], the ED50 in assay [1] was 0.13 mg/kg. Further, the Ki on kappa brain receptor was about 50 nM.

Turning to `CN(C[C@@H]1CCCCN1C(=O)Cc1ccc2c(c1)CCCC2=O)C1CC1` [Example 12, (2S)-1-[1-oxo-3,4-dihydro-(2H)-napht-6-yl]acetyl-2-(N-cyclopropyl-N-methyl)aminomethyl piperidine hydrochloride], in assay [1], the ED50 is 0.141 mg/kg. Also, on kappa brain receptor, the Ki was 50 nM.

`CN(C)C[C@@H]1CC(C)(C)CCN1C(=O)Cc1ccc2c(c1)CCCC2=O` [Example 15, (-)-1-[1-oxo-3,4-dihydro-(2H)-napht-6-yl]acetyl-2-dimethylaminomethyl-4,4-dimethylpiperidine D(-) tartrate]: the ED50 in assay [1] is 0.115 mg/kg. Further, the affinity at kappa brain receptor corresponds to a Ki of 22.9 nM.

As for `C#CCN(C)C[C@@H]1CCCCN1C(=O)Cc1ccc2c(c1)CCCC2=O` [Example 16, (2S)-1-[1-oxo-3,4-dihydro-(2H)-napht-6-yl]acetyl-2-(N-methyl-N-propargyl)aminomethyl piperidine hydrochloride], in assay [1], the ED50 stood at 0.056 mg/kg.

As to `CN(C[C@@H]1CCCCN1C(=O)Cc1ccc2c(c1)CCCC2=O)C1CCC1` [Example 17, (2S)-1-[1-oxo-3,4-dihydro-(2H)-napht-6-yl]acetyl-2-(N-cyclobutyl-N-methyl)aminomethyl piperidine hydrochloride], the ED50 in assay [1] was 0.127 mg/kg.

Turning to `CN(C[C@@H]1CCCCN1C(=O)Cc1ccc2c(c1)CCCC2=O)C1CCCC1` [Example 18, (2S)-1-[1-oxo-3,4-dihydro-(2H)-napht-6-yl]acetyl-2-(N-cyclopentyl-N-methyl)aminomethyl piperidine hydrochloride .1/4 H2 O], the ED50 in assay [1] was found to be 0.21 mg/kg.
